Patent US20050107959A1, “Screening method for evaluation of bilayer-drug interaction in liposomal compositions” (priority 2003, published 2005)

Assay: Differential scanning calorimetry (VP-DSC) of DSPC liposomes (MLVs) with drugs
Format: physicochemical
Design: ΔHcal / ΔHvH / ΔHv: unit not given here
Conditions: for Interaction of the drug with the lipid bilayer (thermogram deviation from DSPC control): FIGS. 1A-1D, pH 3.6, DSPC/drug mixture vs DSPC control; for ΔHcal: calorimetric phase transition enthalpy; for ΔHcal / Cpmax / ΔTm½ / ΔT½: drug-to-lipid 1:5; for CU: cooperativity unit = ΔHvH/ΔHcal; for Tm: drug-to-lipid mole ratio 1:5; for Cpmax: heat capacity at phase transition peak; for ΔTm½ / ΔT½: transition peak width at half-height; for ΔHvH / ΔHv: van't Hoff's enthalpy calculated from DSC measurements; for Coop: cooperativity calculated from DSC measurements
Excerpt: Differential scanning calorimetry (DSC) is a method known in the art used to measure the amount of energy (as heat) absorbed or released by a sample as it is heated, cooled, or held at a constant temperature. As used herein, the term “DSC measurements” further includes calculations using a measured feature of the sample. An exemplary method of measuring DSC utilizes a differential scanning calorimeter. Any calorimeter is suitable as long as the temperature range of the calorimeter is appropriate for the sample measurements. An exemplary calorimeter is the VP-DSC differential scanning calorimeter available from MicroCal (Northampton, Mass., USA). Typical applications using the differential scanning calorimeter include determination of melting point temperature and/or the heat of melting, measurement of the glass transition temperature, curing and crystallization studies, and identification of phase transformations.
In the embodiment using a differential scanning calorimeter for measuring the thermodynamic properties of a lipid suspension, the heat flow into a sample is usually contained in a sample cell and measured differentially, i.e. by comparing the heat flow of the sample to the heat flow into an reference cell containing an equal volume of water or the aqueous component of the sample. The heat flow may be considered as the amount of heat (q) supplied per unit of time (t), or q/t. Typically, both cells sit inside a metal jacket with a known (calibrated) heat resistance (K). The temperature of the calorimeter is raised linearly with time (scanned), where the heating rate (β=dT/dt) of the cells are kept constant and consistent with each other. […] The temperature may be controlled manually or automatically. […] Heat flows into the two cells by conduction from a heat source such as a radiator. The heat flow into the sample cell is larger due to the additional heat capacity (Cp) of the sample during the course of the phase transition. Heat capacity refers to the heat flow divided by the heating rate or Cp=q/ΔT, where q is heat, and ΔT is temperature increase. The difference in heat flow (dq/dt) induces a temperature difference (dT) between the sample and the reference cells. This temperature difference is measured using any appropriate sensor, such as a thermocouple, and a signal is generated representative of the difference.
In this figure, in a heating scan, an endothermic event results in a positive (upward) deviation from the baseline. […] The melting temperature is seen on the heat flow plot as a peak as heat is absorbed by the sample until the phase transition is completed. As will be appreciated by those of skill in the art, the main phase transition extends over a temperature range, although this peak is typically very sharp for most vesicle-forming lipids, such as DSPC, the Tm can be reported as the onset of the transition, as the midpoint of the transition, the peak temperature, or any suitable point as long as the parameters are defined. […] It will be appreciated that the exact percent of phase transition is not important as long as it is defined. Where a ratio is used, it is desirable to use the same ratio for each sample to aid in comparison between the samples. In the studies reported herein, the Tm is reported as the maximum peak of the transition range.
The latent heat of melting, or the calorimetric phase transition enthalpy, (ΔHcal) can be determined by first determining the area (A) under the peak according to the following formula: A=(heat in calories)(temperature in Kelvin)/(time in seconds)(mass in moles).

[1] = pH 3.6, scan 20° C./hour, maximum peak of main phase transition

Row | SMILES | Interaction of the drug with the lipid bilayer (thermogram deviation from DSPC control) | ΔHcal (pH 3.6) | CU (pH 3.6) | Tm (pH 3.6) | Tm [1] | Cpmax (pH 3.6) | ΔTm½ (pH 3.6) | ΔHvH (pH 3.6) | ΔHcal (pH 7.0) | Coop (pH 7.0) | Tm (pH 7.0) | Tm (pH 7.0, scan 20° C./hour) | Cpmax (pH 7.0) | ΔT½ (pH 7.0) | ΔHv (pH 7.0)
1 | CC[C@@]1(O)C(=O)OCc2c1cc1n(c2=O)Cc2c-1nc1ccccc1c2CCNC(C)C [CKD602] | some interaction | 11.81 | 45.9 | 54.7 °C | 54.6 °C | 7.5 | 1.27 °C | 542.3 | 11.2 | 117 | 54.43 °C | 54.43 C. | 17.2 | 0.42 °C | 1308
2 | O=C(O)c1cn(C2CC2)c2cc(N3CCNCC3)c(F)cc2c1=O [ciprofloxacin] | – | 9.98 | 38.6 | 55 °C | 54.9 °C | 4.5 | – | 385.6 | – | – | – | – | – | – | –
3 | COc1cccc2c1C(=O)c1c(O)c3c(c(O)c1C2=O)C[C@@](O)(C(=O)CO)C[C@@H]3O[C@H]1C[C@H](N)[C@H](O)[C@H](C)O1 [doxorubicin] | weak interaction | 9.28 | 73.3 | 54.6 °C | 54.5 °C | 7.4 | 0.94 °C | 680.5 | 9.66 | 149 | 54.5 °C | 54.45 C. | 16.3 | 0.4 °C | 1437

Next, values leading:

Row | Interaction of the drug with the lipid bilayer (thermogram deviation from DSPC control) | ΔHcal (pH 3.6) | CU (pH 3.6) | Tm (pH 3.6) | Tm [1] | Cpmax (pH 3.6) | ΔTm½ (pH 3.6) | ΔHvH (pH 3.6) | ΔHcal (pH 7.0) | Coop (pH 7.0) | Tm (pH 7.0) | Tm (pH 7.0, scan 20° C./hour) | Cpmax (pH 7.0) | ΔT½ (pH 7.0) | ΔHv (pH 7.0) | SMILES
4 | significant interaction | 10.6 | 26.6 | 54.5 °C | 54.5 °C | 3.5 | 2.27 °C | 281.7 | 9.94 | 75 | 54.07 °C | 54.07 C. | 8.67 | 0.77 °C | 741 | CC(=O)O[C@H]1C(=O)[C@@]2(C)[C@H]([C@H](OC(=O)c3ccccc3)[C@]3(O)C[C@H](OC(=O)[C@H](O)[C@@H](NC(=O)c4ccccc4)c4ccccc4)C(C)=C1C3(C)C)[C@]1(OC(C)=O)CO[C@@H]1C[C@@H]2O [paclitaxel]
5 | some interaction | 12.77 | 37.2 | 54.7 °C | 54.6 °C | 7.1 | 1.42 °C | 474.9 | 11.65 | 43 | 53.93 °C | 53.93 C. | 6.81 | 1.38 °C | 496 | CC[C@]1(O)C[C@H]2CN(CCc3c([nH]c4ccccc34)[C@@](C(=O)OC)(c3cc4c(cc3OC)N(C=O)[C@H]3[C@@](O)(C(=O)OC)[C@H](OC(C)=O)[C@]5(CC)C=CCN6CC[C@]43[C@@H]65)C2)C1 [vincristine]
